Measured values published in patent US8492418B2, “Method of treating schizophrenia prodrome” (Yale University, priority 2005, dated 2013).
Read-outs that look alike come from different tables or passages of the source.

Assays:
[1] = test system: chronic patients with persistent negative symptoms (schizophrenia); conditions: 157 chronic patients, four sites, adjunctive treatment vs placebo; cited from earlier work
[2] = target: glycine binding site of the NMDA receptor (Homo sapiens, UniProt Q05586); conditions: partial agonist; cited from earlier work
[3] = test system: acutely exacerbated patients (schizophrenia); conditions: 65 acutely exacerbated patients, in addition to antipsychotic; cited from earlier work
[4] = test system: prodromal patients (schizophrenia prodrome); assay: ongoing unpublished open label trial of ethyl-EPA, design nearly identical to the glycine pilot study; assay type: in vivo, human; conditions: 8 weeks, n=7
From the text: Group SOPS change analysis. […] The effect sizes observed with glycine are substantially larger than those observed in my parallel studies with other medications (Table 2). Data for the placebo and olanzapine samples shown are from the published double blind randomized comparison of olanzapine vs placebo (Woods et al., 2003). […] The very large differences between the glycine effect sizes and the placebo effect sizes provide strong support for efficacy. The large differences between the glycine effect sizes and the olanzapine effect sizes are also impressive.

[5] = test system: prodromal patients (schizophrenia prodrome)
From the text: I therefore treated 10 patients meeting criteria for the schizophrenia prodrome with the NMDA […] glycine, used alone without antipsychotic medication. […] To my knowledge, this represents the first attempt to use direct or indirect NMDA/glycine agonists for patients with the schizophrenia prodrome.
The inventor of the present invention enrolled 10 prodromal patients in an eight-week open label trial of oral glycine. The patients were seven males and three females, whose mean±sd age was 17.3±3.3 years. All ten patients met schizophrenia prodrome diagnostic criteria, attenuated positive symptom subgroup, according to the Structured Interview for Prodromal Syndromes (Miller et al., 2002). The mean Scale of Prodromal Symptoms (SOPS) total score at baseline was 39.7, and the positive and negative subscale score means were respectively 11.3 and 12.4 (Table 1).
Glycine was administered orally as powder mixed with water at a dose titrated to 0.4 g/kg BID by week two. Concomitant medications were continued so long as there had been no dose adjustments in the eight weeks prior to enrollment and the patient continued to meet prodromal symptomatic criteria at baseline. Efficacy was assessed using the Scale of Prodromal Symptoms (SOPS). The SOPS consists of 19 items, each scored 0-6, and yields a total score and positive symptom (5 items), negative symptom (six items), disorganization (4 items), and general symptom (4 items) subscale scores.
Categorical outcomes. […] These criteria required all five positive symptom ratings to be below the prodromal range (2 or below).
Group SOPS change analysis. […] Data for the placebo and olanzapine samples shown are from the published double blind randomized comparison of olanzapine vs placebo (Woods et al., 2003). Data for ethyl-EPA (an omega-3 fatty acid) are from an ongoing unpublished open label trial that follows a design nearly identical to the current glycine pilot study.
To accomplish this we modified for the one sample case the sequential monitoring method of O'Brien and Fleming that protects the overall alpha from […] due to multiple looks (Woods and McGlashan, 2002). […] Analyses were planned every 5 patients.

prodromal patients = conditions: risperidone plus cognitive therapy plus usual care; 59 patients randomized; cited from earlier work
[6] = 8 weeks, n=10, baseline score as covariate
[7] = 8 weeks, open label glycine, n=10
[8] = endpoint (LOCF) minus baseline, 8 weeks, n=10
[9] = oral glycine titrated to 0.4 g/kg BID, 8 weeks, LOCF, n=10

## NC1CONC1=O [D-cycloserine, 4-aminoisoxazolidin-3-one, reference compound]
[1]
  difference among treatment groups: no significant differences overall among groups
[2]
  activation relative to that seen with glycine, D-alanine or D-serine: 40-60%

## N[C@H](CO)C(=O)O [D-serine]
[3]
  separation from placebo: did not separate from placebo

## CC/C=C\C/C=C\C/C=C\C/C=C\C/C=C\CCCC(=O)OCC [Ethyl-EPA, ethyl-EPA]
[4]
  SOPS LOCF within group effect size, DIS: −0.05
  SOPS LOCF within group effect size, GEN: −0.17
  SOPS LOCF within group effect size, NEG: 0.24
  SOPS LOCF within group effect size, POS: 0.47
  SOPS LOCF within group effect size, TOTAL: 0.18

## NCC(=O)O [Glycine, glycine]
[5]; 8 weeks, n=10
  group SOPS change, LOCF analysis: improved significantly as a group on the total score and on all four subscales
  group SOPS change, MMRM analysis: improved significantly as a group on the total score and on 3/4 subscales
[5]; [6]
  MMRM-based within group SOPS improvement, DIS: 3.9 ± 2.2
  MMRM-based within group SOPS improvement, GEN: 4.1 ± 3.5
  MMRM-based within group SOPS improvement, NEG: 3.0 ± 5.2
  MMRM-based within group SOPS improvement, POS: 7.4 ± 3.2
  MMRM-based within group SOPS improvement, TOTAL: 18.2 ± 9.9
[5]; [7]
  SOPS LOCF within group effect size, DIS: 1.05
  SOPS LOCF within group effect size, GEN: 1.12
  SOPS LOCF within group effect size, NEG: 0.74
  SOPS LOCF within group effect size, POS: 1.10
  SOPS LOCF within group effect size, TOTAL: 1.39
[5]; 10 glycine-treated patients, 8 weeks
  conversion to psychosis: None of the glycine-treated patients converted to psychosis
[5]; O'Brien and Fleming method modified for one sample
  sequential monitoring vs historical placebo (sufficiency): crossed the decision boundary for sufficiency after 10 patients
[5]; baseline, before glycine, disorganization subscale, n=10
  SOPS DIS score, baseline mean: 6.5
[5]; baseline, before glycine, general symptom subscale, n=10
  SOPS GEN score, baseline mean: 9.5
[5]; baseline, before glycine, n=10
  SOPS TOTAL score, baseline mean: 39.7
[5]; baseline, before glycine, negative symptom subscale, n=10
  SOPS NEG score, baseline mean: 12.4
[5]; baseline, before glycine, positive symptom subscale, n=10
  SOPS POS score, baseline mean: 11.3
[5]; [8]
  SOPS DIS endpoint change, mean: −3.1
  SOPS GEN endpoint change, mean: −3.5
  SOPS NEG endpoint change, mean: −3.0
  SOPS POS endpoint change, mean: −5.7
  SOPS TOTAL endpoint change, mean: −15.3
[5]; of the seven completers, during 8 weeks on glycine
  early remission criteria met (all five positive symptom ratings 2 or below): three met early remission criteria
[5]; [9]
  SOPS DIS score, endpoint (LOCF) mean: 3.4
  SOPS GEN score, endpoint (LOCF) mean: 6.0
  SOPS NEG score, endpoint (LOCF) mean: 9.4
  SOPS POS score, endpoint (LOCF) mean: 5.6
  SOPS TOTAL score, endpoint (LOCF) mean: 24.4
[1]
  difference among treatment groups: no significant differences overall among groups

## Cc1nc2n(c(=O)c1CCN1CCC(c3noc4cc(F)ccc34)CC1)CCCC2 [risperidone]
Prodromal patients
  six month conversion to psychosis rate: 9.7%

## CNCC(=O)O [sarcosine]
[3]
  separation from placebo: did
